The text below walks through data of PubChem BioAssay (NCI).

“And” between values parts separate entries of the source, which are not always exact repeats. Equal values may be shown once.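 All cell lines were grown in 96-well plates and treated with compound for 48 hours. GI50 is the concentration that inhibits growth by half. TGI is the concentration that stops growth completely.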

Assay in all cases: inhibition of tumour cell growth, NCI panel, 48 h
For experiment [1], the system named is ACHN renal.
For experiment [2], the system named is SF-268 CNS.
Experiment [3] has as its system MOLT-4 leukemia.
For experiment [4], the system named is RPMI-8226 leukemia.
In experiment [5] the test system is A549 NSCLC.
For experiment [6], the system named is RXF 393 renal.
Experiment [7] has as its system HS 578T breast.
Experiment [8] has as its system HCC-2998 colon.
Experiment [9] has as its system SK-MEL-5 melanoma.
For experiment [10], the system named is SN12C renal.

For the compound `Cc1cc(Br)c2nsnc2c1[N+](=O)[O-]`, the GI50 in [1] was 4.39 µM; in experiment [2], 2 µM; in experiment [3] it was 1.64 µM; in experiment [4], 0.666 µM; in experiment [5], 4.13 µM; in [6] it was 6.66 µM. Moreover, the GI50 is 2.97 µM in [7], 2.07 µM in [8], 3.88 µM in experiment [9] and 4.93 µM in [10]. Besides, the TGI was 15.5 µM in experiment [1]; 5.16 µM in [2]; 4.93 µM in experiment [3]; 9.55 µM in experiment [4]; 17.3 µM in [5]; 18.5 µM in [6]. The TGI is 18.4 µM in experiment [7], 4.44 µM in experiment [8], 13.8 µM in experiment [9] and 17.2 µM in experiment [10].

In the case of `O=[N+]([O-])c1ccc(N/N=C/c2ccccc2O)nc1`, the GI50 in experiment [1] is 0.594 µM; in experiment [2] it was 1.26 µM; in [4] it was 0.86 µM; in [5] it was 2.07 µM; in experiment [6], 3.48 µM; in experiment [7], more than 100 µM. For the same compound, the results for the GI50 in experiment [8], in experiment [9] and in experiment [10] were 1.46 µM, 1.61 µM and 2.17 µM, respectively. Further, the TGI in [1], in [2], in experiment [4], in [5], in experiment [6] and in experiment [7] was more than 100 µM in each case. Also, the TGI in experiment [8], in experiment [9] and in experiment [10] was more than 100 µM each time.

With `O=C1NC(=O)C(N2CCc3ccccc32)=C1c1ccc(Cl)cc1`, the GI50 in [1], in [2], in experiment [3], in experiment [4], in experiment [5] and in [6] was more than 25 µM throughout. Further, the GI50 is more than 25 µM in experiment [7], more than 25 µM in [8], more than 23.2 µM in experiment [9] and more than 25 µM in [10]. Moreover, the TGI in [1], in experiment [2], in experiment [3], in experiment [4], in [5] and in [6] was more than 25 µM throughout. The TGI in experiment [7], in experiment [8], in experiment [9] and in experiment [10] was more than 25 µM in each case.

Consider `O=C(O)c1ccccc1-c1ccccc1C(=O)Nc1ccc2c(c1)Cc1ccccc1-2`, for which the TGI in experiment [1] is more than 100 µM; in experiment [2], more than 100 µM; in experiment [4], 70.4 µM; in [5], 97.5 µM; in [6] it was more than 100 µM; in [7] it was more than 100 µM. Also, the figures for the TGI in experiment [8], in experiment [9] and in experiment [10] were 33.4 µM, 31.6 µM and more than 100 µM, respectively.

For `CC[C@@]1(O)C(=O)OCc2c1cc1n(c2=O)Cc2cc3c(Cl)c4c(cc3nc2-1)OCO4`, the GI50 was less than 0.001 µM in experiment [1]; 0.0216 µM in experiment [2]; less than 0.001 µM in experiment [3]; less than 0.001 µM in experiment [5]; 0.0371 µM and 0.014 µM in experiment [6]; 0.149 µM and 0.235 µM in experiment [8]. Further, the GI50 in [9] and in experiment [10] was less than 0.001 µM throughout. Moreover, the TGI in experiment [1] was 0.00185 µM and 0.0109 µM; in [2], 13.2 µM; in experiment [4], 4.38 µM; in [5], 1.68 µM and 3.7 µM; in experiment [6], 2.22 µM and 0.23 µM; in experiment [7], more than 100 µM. For the same compound, the TGI in [8] was 6.42 µM; in [9], 0.0323 µM and 0.159 µM.

Take `O=C1C=CC(=O)c2c1cc1ccccc1c2O`: the TGI in experiment [1] is 8.26 µM; in experiment [2], 29.2 µM; in experiment [4] it was more than 26 µM; in [5], 35.3 µM; in experiment [6], 4.98 µM; in experiment [7] it was 38.9 µM. The TGI in experiment [8] was 32.8 µM; in [9], 24.5 µM; in [10] it was 25.2 µM.

`CC(=O)Nc1cc(C(c2ccccc2)c2ccccc2)cc(C(c2ccccc2)c2ccccc2)c1C`: the GI50 is 8.71 µM in experiment [1]; 8.2 µM in experiment [2]; 1.88 µM in experiment [4]; 4.95 µM in experiment [5]; 27.5 µM in experiment [6]; 28 µM in experiment [7]. Further, the GI50 was 14.7 µM in experiment [8], 5.51 µM in [9] and 27.5 µM in experiment [10]. For the same compound, the TGI in experiment [1] was more than 100 µM; in experiment [2] it was more than 100 µM; in experiment [4], 7.67 µM; in [5] it was more than 100 µM; in experiment [6], more than 100 µM; in experiment [7], more than 100 µM. The TGI in experiment [8], in experiment [9] and in [10] was more than 100 µM throughout.

As for `O=Cc1c[nH]c2ccc(-c3csc4ccccc34)cc12`, the GI50 in experiment [1] is 5.11 µM; in [2] it was 4.42 µM; in [3], 3.1 µM; in experiment [4], 1.54 µM; in experiment [5], 4.29 µM; in experiment [6], 1.58 µM. Moreover, the GI50 was 2.3 µM in [7], 15.5 µM in [8] and 3.31 µM in experiment [9]. In addition, the TGI in [1] is more than 100 µM; in experiment [2] it was 54.3 µM; in experiment [3] it was 19.1 µM; in experiment [4], 7.49 µM; in experiment [5] it was more than 100 µM; in [6], 5.13 µM. Further, the TGI is 9.55 µM in experiment [7], more than 100 µM in experiment [8] and more than 100 µM in experiment [9].

`O=c1[nH]cc(CO)c(=O)[nH]1`: the GI50 in experiment [1], in experiment [2], in [3], in [5], in experiment [6] and in experiment [7] was more than 100 µM throughout. The GI50 in experiment [8], in [9] and in experiment [10] was more than 100 µM in each case. Moreover, the TGI in experiment [1], in experiment [2], in experiment [3], in experiment [5], in experiment [6] and in experiment [7] was more than 100 µM throughout. Further, the TGI in experiment [8], in experiment [9] and in [10] was more than 100 µM throughout.

Take `O=NNc1ccc(Sc2ccc3ccccc3c2)cn1`: the TGI is more than 100 µM in experiment [1]; more than 100 µM in [2]; more than 100 µM in [3]; more than 100 µM in experiment [5]; 4.12 µM in experiment [6]; more than 100 µM in [7]. Further, the figures for the TGI in experiment [8], in experiment [9] and in experiment [10] were 31.2 µM, 39.1 µM and more than 100 µM, respectively.
